Conditions: rat; liver microsomes; pH 7.4; 15.0 min; 1.0 µM

Structure (SMILES) | half-life
CO[C@@H]1[C@H](N(C)C(=O)c2ccccc2)C[C@H]2O[C@]1(C)n1c3ccccc3c3c4c(c5c6ccccc6n2c5c31)C(=O)NC4 | 6.54 min
O=C1CCCC2=C1C(c1[nH]ncc1Cl)N=C(Nc1nc3ccc(F)cc3o1)N2 (stereo unspecified) | 14 min
C[C@@H]1CC(=O)Nc2cccc(-c3cnn(C(C)(C)C)c3)c2N1 | > 30 min
Cc1nn(CCc2nc(-c3ccccc3F)cs2)c2[nH]c(=O)cc(C(F)(F)F)c12 | 9.3 min
CCc1ccccc1-n1c(SCC(=O)Nc2ccc(C)cc2)nc2n[nH]c(C)c2c1=N | 1.25 min
N#Cc1cccc(-c2csc(N3CCC(C(N)=O)CC3)n2)c1 | 1.74 min
O=C1Nc2ccccc2C1Cc1cc(Cl)c(O)c(Cl)c1 (stereo unspecified) | 24 min
CCN(CC)CCNC(=O)C1CCN(c2nn3cc(-c4ccc(F)cc4)nc3s2)CC1 | > 30 min
CC(=O)N1CCc2c(sc3c2c(=O)n(-c2ccccc2)c(=O)n3Cc2cccc(C(F)(F)F)c2)C1 | 25 min
Nc1nc2c(s1)C(c1ccc(Br)cc1)CC(=O)N2 (stereo unspecified) | 23.8 min
COCC(C)Nc1ncnc2c1cnn2-c1ccc(C)c(C)c1 (stereo unspecified) | 23.7 min
Nc1nc2c(s1)C(c1ccc(F)cc1F)CC(=O)N2 (stereo unspecified) | > 30 min
Cc1cccc(NCc2ccc(O)c3ncccc23)c1 | 2.2 min
CCOc1ccc(CCNC(=O)c2cc3ccccc3n2Cc2ccc(Cl)c(F)c2)cc1OCC | 1.7 min
O=C(Oc1ccc[nH]c1=O)c1cc([N+](=O)[O-])cc([N+](=O)[O-])c1 | 1.46 min
COc1ccccc1Nc1ccnc(N2CCN(C(=O)c3ccc(F)cc3)CC2)n1 | 11.2 min
CNc1cc(-c2nc(Nc3ccc(F)c(F)c3)c3ccccc3n2)ccn1 | 8.2 min
Nc1nc2c(s1)C(c1ccccc1)CC(=O)N2 (stereo unspecified) | > 30 min
O=C(Nc1cccc(S(=O)(=O)C(F)(F)F)c1)c1ccccc1NC(=O)c1ccccc1OCC(F)(F)F | > 30 min
Nc1ccc(CNc2ccc([S+](=O)([O-])Nc3nccs3)cc2)c(O)c1 | > 30 min
COc1ccc(C2C=C(c3ccc(Cl)cc3)Nc3nc(-c4ccc(Cl)cc4)nn32)cc1 (stereo unspecified) | > 30 min
CCCN1C(CC(C)C)=NS(=O)(=O)c2cc(NC(=O)c3cccs3)ccc21 | 4.56 min
CC(C)(C)OC(=O)N[C@@H](Cc1ccc(O[S+](=O)([O-])c2cccc3cnccc23)cc1)C(=O)N1CCN(Cc2ccccc2)CC1 | 1.6 min
Cc1ccc(-c2cc(C(=O)Nc3ccc(S(=O)(=O)N(C)C)cc3)c3ccccc3n2)cc1C | 3.4 min
COc1cc(-c2nc(-c3c(C)noc3C)cc3c2cc(C)n3CCN(C)C)ccn1 | 19.7 min
COc1ccnc(NC(=S)N2CCN(c3cccc(C(F)(F)F)c3)CC2)c1 | > 30 min

Structure (SMILES) | half-life
Cc1ccc(S(=O)(=O)Nc2cnccc2C(=O)Nc2nc(-c3cc(Br)cs3)cs2)cc1 | > 30 min
CCOC(=O)[C@H]1O[C@H]1C(=O)N[C@@H](CC(C)C)C(=O)NCCC(C)C | 1.48 min
CN1CCC(N(Cc2cccs2)c2ccccc2)CC1 | 1.37 min
O=S(=O)(Nc1nccs1)c1ccc(NCc2cc(F)ccc2O)cc1 | 12 min
COc1cc(C(=S)N2CCN(CCO)CC2)ccc1OCc1ccc(C)cc1 | 3.2 min
Cc1ccc(-c2ccc(CNc3nc(-c4ccccc4C(C)C)ncc3F)cc2)cn1 | 4.5 min
COc1cc(NC(=O)c2nc3ccccc3n(C)c2=O)cc(OC)c1OC | > 30 min
COc1ccccc1N1CCN(CCN(C(=O)c2ccc(I)cc2)c2ccccn2)CC1 | 1.49 min
Cn1c(CN2CCCC2)nc2cc(NC(=O)COc3ccc(Cl)cc3)ccc21 | 8.4 min
O=S(=O)(Nc1nccs1)c1ccc(NCc2cccc(Cl)c2O)cc1 | 14 min
O=C(Cc1cccs1)NCc1nnc2ccc(-c3ccccc3)nn12 | 17.8 min
Cc1ccc(CCNC(=O)C2CCCN(C(=O)c3cc4sccc4n3C)C2)cc1 (stereo unspecified) | 1.7 min
COc1cc(Cl)c(C)cc1Nc1c2c(nc3ccccc13)CCC2 | 1.75 min
COCCNC(=O)c1ccc(-c2ncc3cnc(-c4cccc(F)c4)cn23)cc1 | > 30 min
O=C(NCc1ccco1)c1nc2nc(-c3cccs3)cc(C(F)(F)F)n2n1 | > 30 min
Cc1cnc(-c2ccccc2C(F)F)nc1NCC1CN(c2cnccn2)C1 | 1.8 min
CCCCOC(=O)c1ccnc2cc(C(OCCN3CCCCC3)c3ccccc3Cl)sc12 (stereo unspecified) | 3.32 min
O=C(NCC1(c2nc(-c3ccccc3)cs2)CCOCC1)c1cccc(-c2noc(C(F)(F)F)n2)c1 | 2.92 min
c1cn2cc(-c3ccc4cn[nH]c4c3)nc(Nc3ccc(N4CCOCC4)cc3)c2n1 | 24.9 min
COc1ccc(S(=O)(=O)N(C(=O)C(C)C)c2ccc3oc(=O)sc3c2)cc1 | 2.2 min
Cc1ccc(S(=O)(=O)Nc2cc(C)ccc2C(=O)Nc2nc(-c3ccccc3)cs2)cc1 | 2.5 min
CCOC(=O)c1c(C)c(-c2ccccc2)n(CC(=O)NCc2ccccc2)c1C | 2.28 min
CC(=O)Nc1cc(-c2nc(Nc3ccc(F)c(F)c3)c3ccccc3n2)ccn1 | 12 min
C[S+](=O)([O-])c1ccc(-c2nc(C(=O)N3CCOCC3)n3ccccc23)cc1 | > 30 min
Fc1cc(Nc2nc(-c3ccncc3)nc3ccccc23)ccc1-c1cn[nH]c1 | 19 min
NCC(=O)Nc1cncc(-c2nn3c(=O)cc(N4CCNCC4)nc3s2)c1 | > 30 min

Structure (SMILES) | half-life
FC(F)(F)c1ccccc1-c1nc(NCc2ccc(Cl)cc2)c2ccccc2n1 | > 30 min
Cc1ccc(CNc2ccccc2C(=O)Nc2nc(-c3ccccc3)cs2)cc1 | > 30 min
Cc1ccc(-n2nc3c(=O)n(CCCC(=O)NCc4ccccc4F)nc(C)c3c2C)cc1 | 2.6 min
CNC(=O)C1=C(C)NC(Nc2nc3ccccc3o2)=NC1c1[nH]ncc1Cl (stereo unspecified) | 5.7 min
CC(C)c1ccc(-n2ncc3c(=O)n(CC(=O)Nc4cc(F)ccc4Cl)cnc32)cc1 | 20 min
O=C(Nc1nc(-c2ccccc2)cs1)c1ccncc1NS(=O)(=O)c1ccc(F)c(F)c1 | 11 min
COC(=O)[C@@H]1C[C@H](OC(C)=O)C(=O)[C@H]2[C@@]1(C)CCC1C(=O)O[C@H](c3ccoc3)C[C@@]12C (stereo partly specified) | 9.8 min
Oc1ccc(-c2nc(C3CC3)nc3c2CCN(Cc2ccc(F)cc2)CC3)cc1 | 2.02 min
O=C(Nc1nc(-c2ccccc2)cs1)c1ccncc1NS(=O)(=O)c1ccccc1F | 7 min
O=[S+]([O-])(Nc1ccc2ccccc2c1)c1ccc(NCc2ccc(Cl)cc2O)cc1 | 21 min
Cc1ccnc(NC(=S)N2CCC(Nc3cccc(C(F)(F)F)c3)CC2)c1 | 20 min
COc1ccc(-c2cc(C(F)(F)F)nc(SCCC(=O)Nc3cc(C)ccc3O)n2)cc1 | 14.9 min
COc1ccc(CNc2ccc(S(=O)(=O)Nc3nccs3)cc2)cc1O | > 30 min
COc1ccc(Nc2ncc(C(=O)Nc3cccc(Cl)c3)c3ccccc23)cc1 | 16.5 min
Cc1cccc(CNc2ccc(S(=O)(=O)Nc3nccs3)cc2)c1O | 21 min
Cn1ccc2c(C(=O)NCCC(N)=O)nc(-c3cccc(CO)c3)cc21 | > 30 min
CC[C@H](NC(=O)[C@H](C)NC)C(=O)N1C[C@@H](O)C[C@H]1Cc1c(-c2[nH]c3cc(F)ccc3c2C[C@H]2C[C@H](O)CN2C(=O)[C@H](CC)NC(=O)[C@H](C)NC)[nH]c2cc(F)ccc12 | > 30 min
CC1=C(C(=O)Nc2ccccc2)C(c2ccc[nH]2)n2ncnc2N1 (stereo unspecified) | > 30 min
Fc1cnc(-c2ccccc2C(F)F)nc1NCc1ccc(-c2ccn[nH]2)cc1 | 10 min
O=[N+]([O-])c1cccnc1N/N=C/c1ccccc1O | 7.7 min
O=C(O)c1ccnc2cc(-c3nc4ccccc4n3CCN3CCCCC3)sc12 | > 30 min
O=C1CCCC2=C1C1(CCS(=O)(=O)C1)N=C(Nc1nc3ccccc3o1)N2 (stereo unspecified) | 17 min
N#Cc1nc(-c2cccc3ccccc23)oc1NC1COC1 | 28 min
COc1ccc(C(=O)NC2CCCc3c2[nH]c2c(Cl)cccc32)cc1OC (stereo unspecified) | 22.4 min
Cc1ccc(-c2csc(N3CCC(C(N)=O)CC3)n2)cc1 | 2.22 min
Cc1onc(-c2ccccc2)c1C(=O)Nc1nnc(COc2ccc(Cl)cc2)s1 | > 30 min

Structure (SMILES) | half-life
Cc1ccc(S(=O)(=O)Nc2ccccc2C(=O)Nc2nc(-c3ccccc3)cs2)cc1 | 2.4 min
CN1C[C@@H]2C[C@H]1CN2c1cc2c(cc1F)c(=O)c(C(=O)O)cn2C1CC1 | > 30 min
Cc1sc(NC(=O)Cc2ccc3c(c2)OCO3)nc1-c1ccc2c(c1)CCN2C(=O)c1ccccc1Cl | 24 min
O=[S+]([O-])(Nc1ccc(C2CCNCC2)cc1)c1ccc(NCc2ccc(Br)cc2O)cc1 | > 30 min
CCNc1oc(-c2cccc3ccccc23)nc1C#N | 13 min
Cc1ccc(S(=O)(=O)n2cc(C(=O)Nc3ccc(-c4ccccc4)cc3)c3ccccc32)cc1 | 14 min
CN([C@@H](Cc1ccc(O[S+](=O)([O-])c2cccc3cnccc23)cc1)C(=O)N1CCN(C(=O)OCc2ccccc2)CC1)[S+](=O)([O-])c1cccc2cnccc12 | 2.7 min
CN(C)c1cccc(-c2ncnc(N3CCC(C(N)=O)CC3)n2)c1 | 5.7 min
CCn1cc(CNC(=O)c2cc(-c3ccc(C)cc3)nc3ccc(Br)cc23)c(C)n1 | 10.9 min
O=C(CCCN1CCC2(CC1)C(=O)N(Cc1cccc(F)c1)CN2c1ccccc1)c1ccc(F)cc1 | 1.65 min
Cc1noc(C)c1-c1cc(-c2ccc3c(c2)C(=O)NC3)cn2cncc12 | > 30 min
Nc1c(-c2ccccc2)cc[nH]c1=O | > 30 min
Cc1nc(N)nc2ccccc12 | > 30 min
CC(=O)c1ccc(N2CCN(c3ccc(NC(=O)c4ccc(F)cc4)cc3C(=O)O)CC2)cc1 | > 30 min
Ic1ccccc1CNC1C2CCN(CC2)C1C(c1ccccc1)c1ccccc1 (stereo unspecified) | 8.51 min
COc1ccc(OC)c(Nc2c3c(nc4ccccc24)CCC3)c1 | 1.5 min
Cn1c2cc(S(C)=O)sc2c2cnn(Cc3cccc(N)c3)c(=O)c21 (stereo unspecified) | > 30 min
CS(=O)(=O)Nc1cccc(-c2nccc(-n3ccnc3)n2)c1 | > 30 min
Cc1nc2sccn2c(=O)c1S(=O)(=O)Nc1ccc(N2CCN(C)CC2)cc1 | 17.8 min
Cc1ccc(-c2cc(C(=O)Nc3ccc(-c4nn[nH]n4)cc3)c3ccccc3n2)cc1C | > 30 min
CCC(Sc1nc2ccccc2c2nc(CCc3c(C)n[nH]c3C)nn12)C(=O)Nc1ccc(F)cc1 (stereo unspecified) | 4.01 min
COc1ccc(Cn2c(C(=O)O)c(CNCc3ccco3)c3ccc(C)cc32)cc1 | > 30 min
CC(C)CC(=O)Nc1n[nH]c2c1CN(C(=O)C1CCN(C)CC1)C2(C)C | > 30 min

From PubChem BioAssay AID1508591
